Earlier results as cited in US20240122923A1, “METHODS OF TREATING HIDRADENITIS SUPPURATIVA” (AbbVie Inc., priority 2022, published 2024).

Tested on: HS
Details: 24-week treatment period; cited from earlier work

etanercept
improvement of HS: failed to show improvement of HS
